According to a compilation of properties of binary mixtures (doi:10.1039/b704843b):

Experiment: xn = mol fraction of the nth substance listed
Details: 101 kPa

## O + CCCC[n+]1ccn(C)c1.F[P-](F)(F)(F)(F)F
298.15 K, x1 = 1
  viscosity: 0.894 mPa·s
308.15 K, x1 = 1
  viscosity: 0.717 mPa·s
313.15 K, x1 = 1
  viscosity: 0.659 mPa·s

## CCCC[n+]1ccn(C)c1.F[P-](F)(F)(F)(F)F + O
298.15 K, x1 = 0.0003
  viscosity: 0.909 mPa·s
298.15 K, x1 = 0.0006
  viscosity: 0.917 mPa·s
298.15 K, x1 = 0.001
  viscosity: 0.923 mPa·s
303.15 K, x1 = 0.0003
  viscosity: 0.809 mPa·s
303.15 K, x1 = 0.0006
  viscosity: 0.815 mPa·s
303.15 K, x1 = 0.001
  viscosity: 0.822 mPa·s
303.15 K, x1 = 0.0013
  viscosity: 0.83 mPa·s
308.15 K, x1 = 0.0003
  viscosity: 0.72 mPa·s
308.15 K, x1 = 0.0006
  viscosity: 0.725 mPa·s
308.15 K, x1 = 0.001
  viscosity: 0.73 mPa·s
308.15 K, x1 = 0.0013
  viscosity: 0.737 mPa·s
313.15 K, x1 = 0.0003
  viscosity: 0.662 mPa·s
313.15 K, x1 = 0.0006
  viscosity: 0.667 mPa·s
313.15 K, x1 = 0.001
  viscosity: 0.672 mPa·s
313.15 K, x1 = 0.0013
  viscosity: 0.678 mPa·s
318.15 K, x1 = 0.0003
  viscosity: 0.604 mPa·s
318.15 K, x1 = 0.0006
  viscosity: 0.609 mPa·s
318.15 K, x1 = 0.001
  viscosity: 0.614 mPa·s
318.15 K, x1 = 0.0013
  viscosity: 0.62 mPa·s
